Reference: patent US8921368B2, “Pyrrolopyridazine JAK3 inhibitors and their use for the treatment of inflammatory and autoimmune diseases” (Bristol-Myers Squibb Company, priority 2011, dated 2014)

Experiments:
JAK3 = JAK3 (Homo sapiens (Human), UniProt P52333); assay: JAK3 Kinase Assay (Caliper / Filter protocols); format: biochemical; conditions: JAK3 kinase inhibition; ATP 8 μM; read-out: LLE_JAK3_FB (IC50)
Experimental: JAK3 Kinase Assay Protocol (Caliper)
The assay reactions were performed in U-bottom 384-well plates. […] The reaction was initiated by the combination of GST-JAK3 enzyme with substrates and test compounds. The reactions were incubated at room temperature for 3 hours and terminated by adding 60 μl of 35 mM EDTA to each sample. […] Compounds were dissolved at 10 mM in dimethylsulfoxide (DMSO) and evaluated at eleven concentrations. IC50 values were derived by non-linear regression analysis.
JAK3 Kinase Assay Protocol (Filter)
Kinase reactions consisted of 5 ng of JAK3 enzyme, 30 uM CSKtide substrate, 0.2 μCi ^33P γ-ATP, 8 μM ATP in 30 μl kinase buffer (50 mM Hepes, pH 8.0, 10 mM MgCl2, 1 mM EGTA, 2 mM DTT). Reactions were incubated for 30 minutes at room temperature and stopped by the addition of cold trichloroacetic acid (TCA) to a final concentration of 15%. TCA precipitates were collected onto 384 well phosphocellulose filters (Millipore) using a Platemate to transfer the reaction mixture, washed on an EMBLA plate washer and the filters were quantitated using a TopCount 384-well liquid scintillation counter. […] Compounds were dissolved at 10 mM in dimethylsulfoxide (DMSO) and evaluated at six concentrations, each in triplicate. The final concentration of DMSO in the assay equaled 2%. IC50 values were derived by non-linear regression analysis.

JAK1 = JAK1 (Homo sapiens (Human), UniProt P23458); assay: JAK1 Kinase Assay Protocol; format: biochemical; conditions: GST-JAK1; ATP 100 μM; Caliper LabChip; read-out: LLE_JAK1 (IC50)
Experimental: JAK1 Kinase Assay Protocol
The assay reactions were performed in U-bottom 384-well plates. The final assay volume was 30 μl prepared from 15 μl additions of enzyme and substrates (fluoresceinated peptide and ATP) and test compounds in assay buffer (20 mM HEPES pH 7.4, 10 mM MgCl2, 25 mM beta-glycerol phosphate, 0.015% Brij35 and 4 mM DTT). The reaction was initiated by the combination of GST-JAK1 enzyme with substrates and test compounds. The reactions were incubated at room temperature for 3 hours and terminated by adding 60 μl of 35 mM EDTA to each sample. […] The final concentration of reagents in the assays was: ATP, 100 μM; fluoresceinated peptide, 1.5 μM; GST-JAK1, 12.5 nM; and DMSO, 1.6%. […] Compounds were dissolved at 10 mM in dimethylsulfoxide (DMSO) and evaluated at eleven concentrations. IC50 values were derived by non-linear regression analysis.

JAK3, sequence (P52333 whole entry): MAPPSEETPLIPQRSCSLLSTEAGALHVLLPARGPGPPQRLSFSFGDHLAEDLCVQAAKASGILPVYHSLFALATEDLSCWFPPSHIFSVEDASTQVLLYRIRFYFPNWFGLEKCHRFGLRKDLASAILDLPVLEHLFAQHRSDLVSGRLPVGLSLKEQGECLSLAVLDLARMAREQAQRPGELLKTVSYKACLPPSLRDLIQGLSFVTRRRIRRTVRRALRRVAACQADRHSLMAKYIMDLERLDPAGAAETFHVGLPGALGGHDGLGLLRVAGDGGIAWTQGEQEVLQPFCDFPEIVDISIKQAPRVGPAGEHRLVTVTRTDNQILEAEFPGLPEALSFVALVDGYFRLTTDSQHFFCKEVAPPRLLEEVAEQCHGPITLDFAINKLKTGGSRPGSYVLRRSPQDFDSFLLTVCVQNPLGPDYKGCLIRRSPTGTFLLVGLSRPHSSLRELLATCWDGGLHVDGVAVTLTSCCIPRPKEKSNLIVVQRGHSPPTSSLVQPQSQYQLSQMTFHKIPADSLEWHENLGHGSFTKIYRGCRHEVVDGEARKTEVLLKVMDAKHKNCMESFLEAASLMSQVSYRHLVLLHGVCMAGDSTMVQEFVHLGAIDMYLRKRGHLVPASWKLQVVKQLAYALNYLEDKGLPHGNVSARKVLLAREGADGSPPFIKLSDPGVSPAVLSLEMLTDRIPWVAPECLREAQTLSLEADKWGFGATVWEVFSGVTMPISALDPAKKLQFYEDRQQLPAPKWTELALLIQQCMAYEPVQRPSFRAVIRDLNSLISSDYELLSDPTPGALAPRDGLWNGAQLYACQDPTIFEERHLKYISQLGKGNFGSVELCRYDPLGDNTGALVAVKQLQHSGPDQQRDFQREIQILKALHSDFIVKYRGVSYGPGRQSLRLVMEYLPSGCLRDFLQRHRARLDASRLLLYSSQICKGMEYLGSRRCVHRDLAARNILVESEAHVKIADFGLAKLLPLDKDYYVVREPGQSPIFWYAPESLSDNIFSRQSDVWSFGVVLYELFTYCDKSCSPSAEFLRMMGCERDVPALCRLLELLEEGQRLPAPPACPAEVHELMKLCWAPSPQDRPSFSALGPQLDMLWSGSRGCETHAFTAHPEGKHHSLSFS
JAK1, sequence (P23458 whole entry): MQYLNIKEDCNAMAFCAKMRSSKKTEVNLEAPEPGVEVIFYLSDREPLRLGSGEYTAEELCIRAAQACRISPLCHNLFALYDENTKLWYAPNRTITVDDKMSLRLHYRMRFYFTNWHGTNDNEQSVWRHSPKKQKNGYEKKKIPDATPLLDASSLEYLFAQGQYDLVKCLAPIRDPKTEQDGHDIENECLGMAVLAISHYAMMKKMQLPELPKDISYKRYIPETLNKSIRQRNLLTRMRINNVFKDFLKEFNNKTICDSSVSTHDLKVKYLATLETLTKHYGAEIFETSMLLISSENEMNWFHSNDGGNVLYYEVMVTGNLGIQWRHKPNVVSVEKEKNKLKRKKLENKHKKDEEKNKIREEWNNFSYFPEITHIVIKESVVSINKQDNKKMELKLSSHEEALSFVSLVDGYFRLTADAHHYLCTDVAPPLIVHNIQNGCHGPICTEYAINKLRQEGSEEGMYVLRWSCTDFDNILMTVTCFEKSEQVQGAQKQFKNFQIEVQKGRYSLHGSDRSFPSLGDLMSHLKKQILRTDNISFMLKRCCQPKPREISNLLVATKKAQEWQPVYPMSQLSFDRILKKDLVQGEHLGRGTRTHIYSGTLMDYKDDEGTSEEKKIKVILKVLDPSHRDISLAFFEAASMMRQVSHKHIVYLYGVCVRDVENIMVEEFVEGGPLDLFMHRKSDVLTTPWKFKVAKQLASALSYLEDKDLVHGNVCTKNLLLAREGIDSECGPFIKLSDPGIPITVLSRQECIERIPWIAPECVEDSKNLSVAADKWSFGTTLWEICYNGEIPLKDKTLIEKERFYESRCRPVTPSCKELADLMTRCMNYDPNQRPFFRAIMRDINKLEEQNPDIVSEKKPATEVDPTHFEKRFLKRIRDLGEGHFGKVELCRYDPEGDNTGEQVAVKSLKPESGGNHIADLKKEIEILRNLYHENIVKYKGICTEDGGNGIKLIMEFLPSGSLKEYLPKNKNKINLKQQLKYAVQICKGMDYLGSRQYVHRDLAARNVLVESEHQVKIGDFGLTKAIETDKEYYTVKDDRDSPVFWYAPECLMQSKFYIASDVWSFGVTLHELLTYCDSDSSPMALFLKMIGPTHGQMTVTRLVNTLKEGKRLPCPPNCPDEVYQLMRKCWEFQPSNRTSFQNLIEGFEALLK

SMILES | IC50 (JAK3) [nM] | IC50 (JAK1) [nM]
CC1(C)[C@H](Nc2c(C(N)=O)cnn3cc(NS(C)(=O)=O)cc23)CC[C@@]1(C)O (racemic) [Example 3] | 6 | 45.8
CC(=O)Nc1cc2c(N[C@@H]3CC[C@@](C)(O)C3(C)C)c(C(N)=O)cnn2c1 (racemic) [Example 7] | 0.9 | 8.2
CC1(C)[C@H](Nc2c(C(N)=O)cnn3cc(NS(=O)(=O)c4ccccc4)cc23)CC[C@@]1(C)O (racemic) [Example 22] | 22.1 | 239
CC1(C)[C@H](Nc2c(C(N)=O)cnn3cc(NS(=O)(=O)c4ccc(Cl)cc4)cc23)CC[C@@]1(C)O (racemic) [Example 23] | 23.4 | 258
COc1ccc(S(=O)(=O)Nc2cc3c(N[C@@H]4CC[C@@](C)(O)C4(C)C)c(C(N)=O)cnn3c2)cc1 (racemic) [Example 24] | 34.2 | 
CCS(=O)(=O)Nc1cc2c(N[C@@H]3CC[C@@](C)(O)C3(C)C)c(C(N)=O)cnn2c1 (racemic) [Example 25] | 8.1 | 83.9
CC(C)c1ccccc1-c1cc2c(N[C@@H]3CCC[C@]3(C)F)c(C(N)=O)cnn2c1 (racemic) [Example 60] | 136 | 253
C[C@]1(F)CCC[C@H]1Nc1c(C(N)=O)cnn2cc(-c3cncc4ccccc34)cc12 (racemic) [Example 68] | 46.4 | 
Cc1cccc(-c2cc3c(N[C@@H]4CCC[C@]4(C)F)c(C(N)=O)cnn3c2)c1 (racemic) [Example 72] | 0.3 | 1.3
C[C@]1(F)CCC[C@H]1Nc1c(C(N)=O)cnn2cc(-c3cccc(C(N)=O)c3)cc12 (racemic) [Example 94] | 0.5 | 1.4
Cn1nccc1-c1cc2c(N[C@@H]3C[C@@H](O)[C@@H](O)C3(C)C)c(C(N)=O)cnn2c1 (racemic) [Example 142] | 5.6 | 10.9
Cn1nccc1-c1cc2c(N[C@@H]3CC[C@](C)(O)C3(C)C)c(C(N)=O)cnn2c1 (racemic) [Example 148] | 25.2 | 46.4
C[C@]1(F)CCC[C@H]1Nc1c(C(N)=O)cnn2cc(N3CCCC3=O)cc12 (racemic) [Example 159] | 0.5 | 3.8
Cn1nccc1-c1cc2c(N[C@H]3CC[C@@](C)(O)CC3)c(C(N)=O)cnn2c1 [Example 162, 4-((4-hydroxy-4-methylcyclohexyl)amino)-6-(1-methyl-1H-pyrazol-5-yl)pyrrolo[1,2-b]pyridazine-3-carboxamide] | 62.7 | 
COc1cccc(-c2cc3c(NC4C5CC6CC4CC(O)(C6)C5)c(C(N)=O)cnn3c2)c1 (stereo not drawn) [Example 176, 4-((5-hydroxyadamantan-2-yl)amino)-6-(3-methoxyphenyl)pyrrolo [1,2-b]pyridazine-3-carboxamide] | 8.9 | 
Cc1cccc(C)c1-c1cc2c(NC3C4CC5CC3CC(O)(C5)C4)c(C(N)=O)cnn2c1 (stereo not drawn) [Example 177, 6-(2,6-dimethylphenyl)-4-((5-hydroxyadamantan-2-yl)amino)pyrrolo [1,2-b]pyridazine-3-carboxamide] | 524 | 
COc1ccccc1-c1cc2c(NC3C4CC5CC3CC(O)(C5)C4)c(C(N)=O)cnn2c1 (stereo not drawn) [Example 178, 4-((5-hydroxyadamantan-2-yl)amino)-6-(2-methoxyphenyl)pyrrolo [1,2-b]pyridazine-3-carboxamide] | 1 | 
Cn1nccc1-c1cc2c(NC3C4CC5CC3CC(O)(C5)C4)c(C(N)=O)cnn2c1 (stereo not drawn) [Example 185, 4-((5-hydroxyadamantan-2-yl)amino)-6-(1-methyl-1H-pyrazol-5-yl) pyrrolo[1,2-b] pyridazine-3-carboxamide] | 6.2 | 
Cc1ccc(-c2cc3c(NC4C5CC6CC4CC(O)(C6)C5)c(C(N)=O)cnn3c2)cc1 (stereo not drawn) [Example 187, 4-((5-hydroxyadamantan-2-yl)amino)-6-(4-methylphenyl)pyrrolo [1,2-b]pyridazine-3-carboxamide] |  | 63.4
